Target: human NLRP3 (Homo sapiens, UniProt Q96P20)
Experiment: Scintillation Proximity (SPA) NLRP3 Assay, displacement of 3H-MCC950
Assay type: binding
Settings: displacement of 3H-MCC950 from human NLRP3
Protocol: Improved NLRP3 binding correlates with increased affinity for NLRP3 protein and, by extension, increased ability to interfere with its function.
SPA experiments were conducted in a total volume of 20 μL assay buffer containing 20 mM HEPES pH 7.5, 150 mM NaCl, 5 mM MgCl2, 0.01% (v/v) Tween-20, 0.01% (w/v) bovine serum albumin (BSA) and 100 μM of adenosine diphosphate (ADP). A human NLRP3 protein (350 nM) (see, e.g., Sharif et al., Nature (2019) 570:338-343; Hochheiser et al., Nature (2022) 604:184-189; Adreeva et al., Cell (2021) 184:6299-6312; Wang et al., J Exp. Med. (2021) 219:e20211147) was incubated with various concentration of compounds in 5% dimethyl sulfoxide (DMSO) final for 15 minutes at room temperature in a white half-area 96 well OptiPlate (PerkinElmer #6002290) before adding 125 nM final of 3H-MCC950. After the addition of radiolabeled MCC950, the plate was incubated for 60 minutes at room temperature before adding 0.25 mg/ml of copper-coated polyvinyltoluene SPA beads (PerkinElmer #RPNQ0095). The plate was then transferred to a microplate counter (PerkinElmer 2450 Microbeta) to collect binding data. Binding data was analyzed 6 hrs post-PVT bead addition to allow sufficient time to reach equilibrium. Specific binding was calculated from averaged duplicates by subtracting signal from wells without NLRP3 protein.
SPA NLRP3 IC50 assay results are provided in Table B. “A” activity=<1 uM; “B” activity=1-10 uM; “C” activity=>10-50 uM; “D” activity=>50 uM-100 uM; and “E” activity=>100 uM.

human NLRP3, sequence (Q96P20 whole entry): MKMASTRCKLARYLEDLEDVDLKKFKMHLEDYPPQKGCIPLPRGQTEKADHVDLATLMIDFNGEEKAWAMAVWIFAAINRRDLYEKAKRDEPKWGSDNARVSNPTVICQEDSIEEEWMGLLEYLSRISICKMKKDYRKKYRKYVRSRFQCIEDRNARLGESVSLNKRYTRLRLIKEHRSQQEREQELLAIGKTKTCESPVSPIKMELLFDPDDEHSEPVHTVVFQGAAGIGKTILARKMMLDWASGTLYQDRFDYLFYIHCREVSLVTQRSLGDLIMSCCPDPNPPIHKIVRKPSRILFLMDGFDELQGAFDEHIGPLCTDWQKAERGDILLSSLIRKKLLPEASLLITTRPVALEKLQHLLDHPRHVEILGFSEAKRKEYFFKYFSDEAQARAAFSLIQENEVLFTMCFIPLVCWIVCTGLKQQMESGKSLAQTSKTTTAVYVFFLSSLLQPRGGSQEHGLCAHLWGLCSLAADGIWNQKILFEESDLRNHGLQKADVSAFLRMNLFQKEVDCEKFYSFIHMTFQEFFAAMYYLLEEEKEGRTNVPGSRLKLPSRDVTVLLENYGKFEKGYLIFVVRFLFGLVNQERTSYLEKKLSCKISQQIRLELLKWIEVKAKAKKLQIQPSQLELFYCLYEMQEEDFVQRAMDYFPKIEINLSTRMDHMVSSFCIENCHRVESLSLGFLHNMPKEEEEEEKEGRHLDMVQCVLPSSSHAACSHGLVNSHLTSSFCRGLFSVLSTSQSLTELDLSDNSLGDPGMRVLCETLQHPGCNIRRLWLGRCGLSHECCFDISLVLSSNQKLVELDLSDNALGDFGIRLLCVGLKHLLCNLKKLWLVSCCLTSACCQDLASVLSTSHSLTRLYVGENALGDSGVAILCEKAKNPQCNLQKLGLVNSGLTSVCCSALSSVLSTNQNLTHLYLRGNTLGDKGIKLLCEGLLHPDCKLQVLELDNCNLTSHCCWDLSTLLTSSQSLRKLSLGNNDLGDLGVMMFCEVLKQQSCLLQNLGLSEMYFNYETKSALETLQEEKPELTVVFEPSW

Row | Structure (SMILES) | IC50 (Table B, activity class) | IC50 (Table C)
1 | C[C@@H]1C[C@H](NC(=O)N(C)c2ccc(C(F)(F)F)c(F)c2)[C@H]2CC[C@@H]1N2c1nnn[nH]1 (single isomer, unassigned) [49B*] | > 100 µM | 
2 | CC1CCN(c2nnn[nH]2)CC(NC(=O)N(C)c2ccc(Cl)cc2)C1 (single isomer, unassigned) [4D*] | 1 to 10 µM | 
3 | C[C@@H]1CCN(c2nnn[nH]2)C[C@@H](NC(=O)N(C)c2ccc(OC(F)(F)F)cc2)C1 (single isomer, unassigned) [10B*] | 1 to 10 µM | 
4 | C[C@H]1C[C@@H](NC(=O)N(C)c2ccc(C(F)(F)F)c(F)c2)[C@@H]2CC[C@H]1N2c1nnn[nH]1 (single isomer, unassigned) [49C*] | 50 to 100 µM | 
5 | C[C@@H]1C[C@H](NC(=O)N(C)c2ccc(C(F)F)cc2F)[C@H]2CC[C@@H]1N2c1nnn[nH]1 (single isomer, unassigned) [55B*] | > 100 µM | 
6 | C[C@H]1C[C@H](NC(=O)N(C)c2ccc(OC(F)F)c(F)c2)[C@@H]2CC[C@H]1N2c1nnn[nH]1 (single isomer, unassigned) [52D*] | 10 to 50 µM | 
7 | C[C@H]1C[C@H](NC(=O)N(C)c2ccc(OC(F)F)cc2)[C@@H]2CC[C@H]1N2c1nnn[nH]1 (single isomer, unassigned) [42D*] | 10 to 50 µM | 
8 | C[C@H]1C[C@H](NC(=O)N(C)c2ccc(C(F)F)cc2F)[C@@H]2CC[C@H]1N2c1nnn[nH]1 (single isomer, unassigned) [55D*] | 10 to 50 µM | 
9 | C[C@H]1C[C@@H](NC(=O)N(C)c2ccc(OC(F)F)c(F)c2)[C@@H]2CC[C@H]1N2c1nnn[nH]1 (single isomer, unassigned) [52C*] | > 100 µM | 
10 | C[C@@H]1CCN(c2nnn[nH]2)C[C@@H](NC(=O)N(C)c2ccc(Cl)cc2)C1 (single isomer, unassigned) [4B*] | 1 to 10 µM | 
11 | C[C@H]1C[C@H](NC(=O)N(C)c2ccc(OC(F)(F)F)cc2)[C@@H]2CC[C@H]1N2c1nnn[nH]1 (single isomer, unassigned) [45D*] | 1 to 10 µM | 
12 | C[C@H]1CCN(c2nnn[nH]2)C[C@H](NC(=O)N(C)c2ccc(OC(F)F)cc2)C1 (single isomer, unassigned) [11C*] | 50 to 100 µM | 
13 | C[C@@H]1C[C@H](NC(=O)N(C)c2ccc(C(F)(F)F)cc2F)[C@H]2CC[C@@H]1N2c1nnn[nH]1 (single isomer, unassigned) [48B*] | > 100 µM | 
14 | C[C@H]1C[C@@H](NC(=O)N(C)c2c(F)cc(OC(F)F)cc2F)[C@@H]2CC[C@H]1N2c1nnn[nH]1 (single isomer, unassigned) [61C*] | > 100 µM | 
15 | C[C@H]1C[C@H](NC(=O)N(C)c2c(F)cc(OC(F)(F)F)cc2F)[C@@H]2CC[C@H]1N2c1nnn[nH]1 (single isomer, unassigned) [62D*] | 50 to 100 µM | 
16 | C[C@@H]1C[C@H](NC(=O)N(C)c2ccc(OC(F)(F)F)c(F)c2)[C@H]2CC[C@@H]1N2c1nnn[nH]1 (single isomer, unassigned) [51B*] | 50 to 100 µM | 
17 | C[C@@H]1CCN(c2nnn[nH]2)C[C@@H](NC(=O)N(C)c2ccc(OC(F)F)cc2)C1 (single isomer, unassigned) [11B*] | 1 to 10 µM | 
18 | C[C@H]1CCN(c2nnn[nH]2)C[C@H](NC(=O)N(C)c2ccc(Cl)cc2)C1 (single isomer, unassigned) [4C*] | 50 to 100 µM | 
19 | C[C@@H]1C[C@H](NC(=O)N(C)c2ccc(OC(F)F)cc2F)[C@H]2CC[C@@H]1N2c1nnn[nH]1 (single isomer, unassigned) [57B*] | > 100 µM | 
20 | C[C@H]1C[C@@H](NC(=O)N(C)c2ccc(Cl)c(F)c2)[C@@H]2CC[C@H]1N2c1nnn[nH]1 (single isomer, unassigned) [50C*] | > 100 µM | 
21 | C[C@H]1CCN(c2nnn[nH]2)C[C@H](NC(=O)N(C)c2ccc(C(F)(F)F)c(F)c2)C1 (single isomer, unassigned) [9C*] | > 100 µM | 
22 | C[C@@H]1C[C@H](NC(=O)N(C)c2ccc(C(F)(F)F)c(F)c2F)[C@H]2CC[C@@H]1N2c1nnn[nH]1 (single isomer, unassigned) [47B*] | 50 to 100 µM | 

Next, values leading:

Row | IC50 (Table B, activity class) | IC50 (Table C) | Structure (SMILES)
23 | 1 to 10 µM |  | C[C@H]1CCN(c2nnn[nH]2)C[C@@H](NC(=O)N(C)c2c(F)cc(OC(F)(F)F)cc2F)C1 (single isomer, unassigned) [41D*]
24 | 1 to 10 µM |  | C[C@@H]1CCN(c2nnn[nH]2)C[C@@H](NC(=O)N(C)c2c(F)cc(OC(F)F)cc2F)C1 (single isomer, unassigned) [19B*]
25 | 1 to 10 µM |  | C[C@H]1CCN(c2nnn[nH]2)C[C@@H](NC(=O)N(C)c2ccc(C(F)(F)F)c(F)c2F)C1 (single isomer, unassigned) [21D*]
26 | < 1 µM |  | CCN(C(=O)N[C@H]1C[C@H](C)CCN(c2nnn[nH]2)C1)c1ccc(OC(F)(F)F)cc1 (single isomer, unassigned) [43B*]
27 | 10 to 50 µM |  | CC1CCN(c2nnn[nH]2)CC(NC(=O)N(C)c2cnc(C(F)(F)F)nc2)C1 (single isomer, unassigned) [31C*]
28 | 1 to 10 µM |  | C[C@H]1CCN(c2nnn[nH]2)C[C@@H](NC(=O)N(C)c2c(F)cc(C3CC3)cc2F)C1 (single isomer, unassigned) [20D*]
29 | 1 to 10 µM |  | C[C@@H]1CCN(c2nnn[nH]2)C[C@@H](NC(=O)N(C)c2ccc(C3CC3)c(F)c2)C1 (single isomer, unassigned) [23B*]
30 | 1 to 10 µM |  | C[C@@H]1CCN(c2nnn[nH]2)C[C@@H](NC(=O)N(C)c2ccc(C(F)(F)F)c(F)c2F)C1 (single isomer, unassigned) [21B*]
31 | < 1 µM | 0.82 µM | C[C@H]1C[C@@H](NC(=O)N(C)c2ccc(OC(F)F)cc2)CN(c2nnn[nH]2)C1 [Compound 39A, 1-(4-(difluoromethoxy)phenyl)-1-methyl-3-((3R,5S)-5-methyl-1-(1H-tetrazol-5-yl)piperidin-3-yl)urea]
32 | 1 to 10 µM |  | C[C@@H]1CCN(c2nnn[nH]2)C[C@H](NC(=O)N(C)c2ccc(Cl)nc2)C1 (single isomer, unassigned) [29A*]
33 | 10 to 50 µM |  | C[C@H]1CCN(c2nnn[nH]2)C[C@@H](NC(=O)N(C)c2ccc(OC(F)(F)F)c(F)c2)C1 (single isomer, unassigned) [14D*]
34 | 1 to 10 µM |  | C[C@H]1CCN(c2nnn[nH]2)C[C@@H](NC(=O)N(C)c2ccc(C(F)(F)F)c(F)c2)C1 [Compound 9D, 1-(3-fluoro-4-(trifluoromethyl)phenyl)-1-methyl-3-((3S,5S)-5-methyl-1-(1H-tetrazol-5-yl)azepan-3-yl)urea]
35 | 10 to 50 µM |  | C[C@H]1CCN(c2nnn[nH]2)C[C@H](NC(=O)N(C)c2ccc(OC(F)F)c(F)c2F)C1 (single isomer, unassigned) [40C*]
36 | 1 to 10 µM | 1.4 µM | C[C@@H]1CCN(c2nnn[nH]2)C[C@H](NC(=O)Nc2ccc(Cl)cc2F)C1 (single isomer, unassigned) [27A*]
37 | 10 to 50 µM |  | C[C@@H]1CCN(c2nnn[nH]2)C[C@H](NC(=O)N(C)c2ccc(C(F)(F)F)nn2)C1 (single isomer, unassigned) [33A*]
38 | 10 to 50 µM |  | C[C@H]1CCN(c2nnn[nH]2)C[C@H](NC(=O)N(CC2CC2)c2ccc(OC(F)(F)F)cc2)C1 (single isomer, unassigned) [44C*]
39 | 10 to 50 µM |  | C[C@H]1CCN(c2nnn[nH]2)C[C@@H](NC(=O)N(C)c2ccc(OC(F)(F)F)c(F)c2F)C1 (single isomer, unassigned) [26D*]
40 | 10 to 50 µM |  | C[C@H]1CCN(c2nnn[nH]2)C[C@H](NC(=O)N(C)c2ccc(OC(F)(F)F)cc2F)C1 (single isomer, unassigned) [24C*]
41 | > 100 µM |  | C[C@H]1CCN(c2nnn[nH]2)C[C@H](NC(=O)N(C)c2ccc(OC(F)F)c(F)c2)C1 (single isomer, unassigned) [15C*]
42 | 1 to 10 µM |  | C[C@H]1CCN(c2nnn[nH]2)C[C@@H](NC(=O)N(C)c2ccc(OC(F)F)c(OC(F)F)c2)C1 (single isomer, unassigned) [16D*]
43 | 1 to 10 µM |  | C[C@@H]1CCN(c2nnn[nH]2)C[C@@H](NC(=O)N(C)c2ccc(OC(F)(F)F)c(F)c2)C1 (single isomer, unassigned) [14B*]
44 | 10 to 50 µM |  | C[C@H]1CCN(c2nnn[nH]2)C[C@@H](NC(=O)N(C)c2ccc(C(F)F)cc2F)C1 (single isomer, unassigned) [18D*]
45 | > 100 µM |  | C[C@H]1CCN(c2nnn[nH]2)C[C@@H](NC(=O)Nc2ccc(Cl)cc2F)C1 (single isomer, unassigned) [27D*]
46 | 1 to 10 µM |  | C[C@H]1CCN(c2nnn[nH]2)C[C@@H](NC(=O)N(C)c2c(F)cc(OC(F)F)cc2F)C1 (single isomer, unassigned) [19D*]
47 | > 100 µM |  | C[C@@H]1CCN(c2nnn[nH]2)C[C@@H](NC(=O)N(C)c2ncc(C(F)(F)F)cn2)C1 (single isomer, unassigned) [30B*]
48 | 10 to 50 µM |  | C[C@H]1CCN(c2nnn[nH]2)C[C@H](NC(=O)N(C)c2ccc(C3CC3)c(F)c2)C1 (single isomer, unassigned) [23C*]
49 | 10 to 50 µM |  | C[C@H]1CCN(c2nnn[nH]2)C[C@H](NC(=O)N(C)c2ccc(C(F)F)c(F)c2)C1 (single isomer, unassigned) [22C*]
50 | 10 to 50 µM |  | C[C@H]1CCN(c2nnn[nH]2)C[C@@H](NC(=O)N(C)c2ccc(OC(F)(F)F)c(OC(F)F)c2)C1 (single isomer, unassigned) [25D*]

Source: patent publication US20260008768A1, “UREA DERIVATIVES FOR INHIBITING NLRP3 AND USES THEREOF” (VENTUS THERAPEUTICS U.S., INC., priority 2023, published 2026)
